Laboratory results taken from US9758491B2, “Molecules having pesticidal utility, and intermediates, compositions, and processes, related thereto” (priority 2015, dated 2017).

Columns and labels:
Assay type in all cases: in vivo
[1] = system: Beet Armyworm (Spodoptera exigua, LAPHEG); assay: Bioassay on Beet Armyworm (BAW), 128-well diet tray assay; conditions: 168 h, 50 μg/cm^2 on artificial diet, second instar larvae, 25° C., five to seven days, average of eight wells, read-out: BAW rating, % Control (or Mortality)
Description: (§1) Certain molecules disclosed in this document were tested against BAW and CL using procedures described in the following examples. In the reporting of the results, the “BAW & CL Rating Table” was used (See Table Section).
Bioassays on BAW were conducted using a 128-well diet tray assay. One to five second instar BAW larvae were placed in each well (3 mL) of the diet tray that had been previously filled with 1 mL of artificial diet to which 50 μg/cm^2 of the test molecule (dissolved in 50 μL of 90:10 acetone-water mixture) had been applied (to each of eight wells) and then allowed to dry. Trays were covered with a clear self-adhesive cover, vented to allow gas exchange, and held at 25° C., 14:10 light-dark for five to seven days. Percent mortality was recorded for the larvae in each well; activity in the eight wells was then averaged. The results are indicated in the table entitled “Table ABC: Biological Results” (See Table Section).

[2] = system: Cabbage Looper (Trichoplusia ni, TRIPNI); assay: Bioassay on Cabbage Looper (CL), 128-well diet tray assay; conditions: 168 h, 50 μg/cm^2 on artificial diet, second instar larvae, 25° C., five to seven days, average of eight wells, read-out: CL rating, % Control (or Mortality)
Description: as §1
Bioassays on CL were conducted using a 128-well diet tray assay. One to five second instar CL larvae were placed in each well (3 mL) of the diet tray that had been previously filled with 1 mL of artificial diet to which 50 μg/cm^2 of the test molecule (dissolved in 50 μL of 90:10 acetone-water mixture) had been applied (to each of eight wells) and then allowed to dry. Trays were covered with a clear self-adhesive cover, vented to allow gas exchange, and held at 25° C., 14:10 light-dark for five to seven days. Percent mortality was recorded for the larvae in each well; activity in the eight wells was then averaged. The results are indicated in the table entitled “Table ABC: Biological Results” (See Table Section).

[3] = system: Yellow Fever Mosquito (Aedes aegypti, AEDSAE); assay: Bioassay on Yellow Fever Mosquito (YFM) larvae, 96-well plate; conditions: 4000 ppm DMSO master solution diluted, about 1 day-old larvae, room temperature, scored after 3 days
Description: Certain molecules disclosed in this document were tested against YFM using procedures described in the following paragraph. In the reporting of the results, the “YFM Rating Table” was used (See Table Section).
Master plates containing 400 μg of a molecule dissolved in 100 μL of dimethyl sulfoxide (DMSO) (equivalent to a 4000 ppm solution) are used. A master plate of assembled molecules contains 15 μL per well. To this plate, 135 μL of a 90:10 water/acetone mixture is added to each well. A robot (Biomek® NXP Laboratory Automation Workstation) is programmed to dispense 15 μL aspirations from the master plate into an empty 96-well shallow plate (“daughter” plate). There are 6 reps (“daughter” plates) created per master. The created “daughter” plates are then immediately infested with YFM larvae.
The day before plates are to be treated, mosquito eggs are placed in Millipore water containing liver powder to begin hatching (4 g into 400 mL). After the “daughter” plates are created using the robot, they are infested with 220 μL of the liver powder/larval mosquito mixture (about 1 day-old larvae). After plates are infested with mosquito larvae, a non-evaporative lid is used to cover the plate to reduce drying. Plates are held at room temperature for 3 days prior to grading. After 3 days, each well is observed and scored based on mortality. The results are indicated in the table entitled “Table ABC: Biological Results” (See Table Section).

| Compound | mortality at 50 µg/cm2 [1] [%] | mortality at 50 µg/cm2 [2] [%] | YFM rating, % Control (or Mortality) [3] |
| --- | --- | --- | --- |
| Cc1ccc(C)c(N/C(N)=N/C(=O)Nc2ccc(-c3ncn(-c4ccc(OC(F)(F)F)cc4)n3)cc2)c1 [F7, (1E)-1-[Amino-(2,5-dimethylanilino)methylene]-3-[4-[1-[4-(trifluoromethoxy)phenyl]-1H-1,2,4-triazol-3-yl]phenyl]urea] | 50 to 100 | 50 to 100 | A (80-100) |
| CCc1ccccc1N/C(N)=N/C(=O)Nc1ccc(-c2ncn(-c3ccc(OC(F)(F)F)cc3)n2)cc1 [F3, (1E)-1-[Amino-(2-ethylanilino)methylene]-3-[4-[1-[4-(trifluoromethoxy)phenyl]-1H-1,2,4-triazol-3-yl]phenyl]urea] | 50 to 100 | 50 to 100 | A (80-100) |
| N/C(=N\C(=O)Nc1ccc(-c2ncn(-c3ccc(OC(F)(F)F)cc3)n2)cc1)Nc1ccccc1 [F4, (1E)-1-[amino(anilino)methylene]-3-[4-[1-[4-(trifluoromethoxy)phenyl]-1H-1,2,4-triazol-3-yl]phenyl]urea] | 50 to 100 | 50 to 100 | A (80-100) |
